Here are results for 7 substances from US5530097A, “Human cancer inhibitory peptide amides” (Arizona Board of Regents acting on behalf of Arizona State …, priority 1994, dated 1996).

Some results are limits rather than exact numbers.

In general, TGI refers to the concentration giving total growth inhibition. The low end stands for more potent growth arrest, the high end for less potent growth arrest.

What all share (assay type): cell-based
The subject of one assay is A498. Put plainly: NCI in vitro mini panel, human cancer cell line growth inhibition. As to conditions: Renal A498, 48 hrs. The protocol:
(§1) ED50 (P388) and GI50 (HTCL) identify the drug dose which reduces the percent tumor/cell growth to 50%. There is no mathematical difference between ED50 and GI50, both of which are calculated using the same formula. The only difference is historical usage.
(§2) TGI, means "Total Growth Inhibition", and identifies the drug dose needed to yield zero percent growth, i.e. there are just as many cells at the end of the experiment as were present at the beginning. Whether just as many cells were killed as were produced (steady state), or no growth occurred (total inhibition) cannot be distinguished.
(§3) LC50, means "Lethal Concentration 50%", and identifies the drug concentration which reduces to one-half of the cells originally present at the beginning of the experiment.
(§4) Each drug is tested at five (5) doses: 100--10-1-0.1--0.01 μg/mL. Percent Growths are calculated for each dose. The two (or three) doses with growth values above, below, (or near to) 50% growth are used to calculate the ED50 /GI50 values using a linear regression computation. If no dose yields a growth value under 50%, the results are expressed as: ED50 >(highest dose). If no dose yields growth higher than 50% growth, then ED50 <(lowest dose). Similar calculations are performed for the TGI at 0% growth, and at -50% growth for the LC50.
(§5) At the start of each experiment, cells from the in vitro cell cultures are inoculated into the appropriate tubes or microtiter plates. One set of control tubes/plates is immediately counted to determine the number of cells at the start of the experiment. This is the "baseline count", or "Tzero reading". At the end of the experiment (48 hrs later), a second set of control tubes/plates is analyzed to determine the "Control Growth" value. The growth (or death) of cells relative to the initial quantity of cells is used to define the "Percent of Growth."
(§6) Similarly, the compounds disclosed herein have also been tested against an NCI in vitro mini panel. For each of six cell lines GI50, TGI, and LC50 amounts were calculated for each compound. Each compound was also tested against the PS-388 cell line and for this test an ED50 was calculated.
(§7) The protocols followed, for the NCI minipanel are, except for the number of cell lines, those established by M. R. Boyd Ph.D., and well known to those of ordinary skill in the art. The procedure followed for the test against PS-388 Leukemia is the same that was followed in the superseded NCI P-388 screening test, which is also well known to those having ordinary skill in the art.

Another assay concerns KM20L2. Described as above. The following applies: Colon KM20L2, 48 hrs. The protocol: as §1, §2, §3, §4, §5, §6, §7
A further assay deals with NCI-H460. The assay is described as above. As to conditions: Lung-NSC NCI-H460, 48 hrs. The protocol:
as §1, §2, §3, §4, §5, §6, §7

The subject of the next assay is OVCAR-3. Described as above. The following applies: Ovarian OVCAR-3, 48 hrs. The protocol:
as §1, §2, §3, §4, §5, §6, §7

For another assay, the system named is SF-295. The assay is described as above. The following applies: CNS SF-295, 48 hrs. The protocol: as §1, §2, §3, §4, §5, §6, §7
In another assay the test system is SK-MEL-5. Described as above. As to conditions: Melanoma SK-MEL-5, 48 hrs. The protocol:
as §1, §2, §3, §4, §5, §6, §7

For the next assay, the system named is PS-388. Briefly: PS-388 mouse leukemia cell line test. The following applies: Mouse Leukemia PS-388. The protocol:
as §1, §4, §5, §6, §7

In the case of “L-Dolavalyl-L-Leucyl-N-methyl-(3R,4S,5S)-Dolaisoleuinyl-(2R,3R,4S)-Dolaproinyl-L-Phenylalanine N-4-chlorophenylamide [8d]”, the GI-50 with A498 came to 0.00018 µg/mL; with KM20L2, 0.000015 µg/mL; with NCI-H460, 0.00032 µg/mL; in the assay on OVCAR-3 it was 0.0000085 µg/mL; in the assay on SF-295, 0.00034 µg/mL; in the assay on SK-MEL-5, 0.0000051 µg/mL. Also, the LC-50 with A498, with KM20L2, in the assay with NCI-H460, in the assay on OVCAR-3, in the assay on SF-295 and in the assay with SK-MEL-5 was greater than 0.01 µg/mL throughout. The TGI in the assay on A498 is 0.0038 µg/mL; in the assay on KM20L2 it was 0.0012 µg/mL; in the assay on NCI-H460, 0.0011 µg/mL; in the assay with OVCAR-3 it was 0.00023 µg/mL; in the assay on SF-295, greater than 0.01 µg/mL; in the assay with SK-MEL-5, greater than 0.01 µg/mL. In the assay with PS-388, this substance registered an ED-50 of 0.0000025 µg/mL.
Regarding “L-Dolavalyl-L-Leucyl-N-methyl-(3R,4S,5S)-Dolaisoleuinyl-(2R,3R,4S)-Dolaproinyl-N-2(2-chlorophenyl) ethylamide [10b]”, the GI-50 in the assay with A498 was 0.00069 µg/mL; in the assay with KM20L2 it was 0.00031 µg/mL; in the assay with NCI-H460 it was 0.00033 µg/mL; with OVCAR-3 it was 0.00031 µg/mL; with SF-295, 0.00042 µg/mL; in the assay with SK-MEL-5 it was 0.00043 µg/mL. For the same substance, the LC-50 in the assay on A498, in the assay with KM20L2, in the assay on NCI-H460, with OVCAR-3, with SF-295 and with SK-MEL-5 was greater than 0.01 µg/mL throughout. Also, the TGI in the assay on A498 was greater than 0.01 µg/mL; in the assay on KM20L2, 0.0013 µg/mL; with NCI-H460 it was 0.0014 µg/mL; in the assay on OVCAR-3 it was 0.0012 µg/mL; with SF-295, greater than 0.01 µg/mL; in the assay on SK-MEL-5 it was greater than 0.01 µg/mL. For the same substance, the ED-50 in the assay with PS-388 turned out to be 0.000357 µg/mL.
Consider “L-Dolavalyl-L-Leucyl-N-methyl-(3R,4S,5S)-Dolaisoleuinyl-(2R,3R,4S)-Dolaproinyl-L-Methionine N-2-chlorophenylamide [8a]”, for which the GI-50 is 0.0037 µg/mL in the assay on A498; 0.0018 µg/mL in the assay on KM20L2; 0.0028 µg/mL with NCI-H460; 0.00047 µg/mL with OVCAR-3; 0.0034 µg/mL in the assay with SF-295; 0.042 µg/mL in the assay with SK-MEL-5. Also, the LC-50 with A498, in the assay with KM20L2, in the assay on NCI-H460, with OVCAR-3, with SF-295 and in the assay with SK-MEL-5 was greater than 0.01 µg/mL in each case. Further, the TGI in the assay on A498 is greater than 0.01 µg/mL; in the assay with KM20L2, greater than 0.01 µg/mL; in the assay on NCI-H460, 0.0079 µg/mL; in the assay on OVCAR-3, 0.005 µg/mL; in the assay with SF-295 it was greater than 0.01 µg/mL; in the assay on SK-MEL-5, greater than 0.01 µg/mL. This substance also showed an ED-50 in the assay on PS-388 of 0.00256 µg/mL.
For the substance “L-Dolavalyl-L-Leucyl-N-methyl-(3R,4S,5S)-Dolaisoleuinyl-(2R,3R,4S)-Dolaproinyl-L-Phenylalanine N-3-chlorophenylamide [8c]”, the GI-50 in the assay on A498 came to 0.00042 µg/mL; with KM20L2, 0.00021 µg/mL; in the assay on NCI-H460, 0.0017 µg/mL; with OVCAR-3, 0.000064 µg/mL; in the assay with SF-295, 0.00088 µg/mL; with SK-MEL-5, 0.000042 µg/mL. The LC-50 in the assay with A498, in the assay on KM20L2, in the assay with NCI-H460, in the assay with OVCAR-3, in the assay with SF-295 and in the assay with SK-MEL-5 was greater than 0.01 µg/mL each time. Besides, the TGI in the assay on A498 is greater than 0.01 µg/mL; in the assay with KM20L2, 0.0012 µg/mL; in the assay with NCI-H460 it was 0.0054 µg/mL; in the assay on OVCAR-3 it was 0.0011 µg/mL; in the assay on SF-295, greater than 0.01 µg/mL; with SK-MEL-5, 0.00074 µg/mL. For the same substance, the ED-50 in the assay with PS-388 was determined as 0.0000371 µg/mL.
For “L-Dolavalyl-L-Leucyl-N-methyl-(3R,4S,5S)-Dolaisoleuinyl-(2R,3R,4S)-Dolaproinyl-Dolaphenine [10a]”, the GI-50 is 0.00026 µg/mL in the assay on A498; 0.000034 µg/mL in the assay with KM20L2; 0.00022 µg/mL with NCI-H460; 0.000031 µg/mL in the assay on OVCAR-3; 0.00027 µg/mL with SF-295; 0.000058 µg/mL in the assay with SK-MEL-5. Also, the LC-50 in the assay with A498, in the assay on KM20L2, with NCI-H460, in the assay with OVCAR-3, with SF-295 and with SK-MEL-5 was greater than 0.01 µg/mL in each case. The TGI in the assay with A498 is 0.0063 µg/mL; with KM20L2, 0.001 µg/mL; in the assay with NCI-H460 it was 0.0007 µg/mL; with OVCAR-3, 0.00051 µg/mL; in the assay with SF-295, greater than 0.01 µg/mL; in the assay with SK-MEL-5, greater than 0.01 µg/mL. For the same substance, the ED-50 in the assay with PS-388 is 0.0000312 µg/mL.
For the substance “L-Dolavalyl-L-Leucyl-N-methyl-(3R,4S,5S)-Dolaisoleuinyl-(2R,3R,4S)-Dolaproinyl-L-Methionine N-4-chlorophenylamide [8b]”, the GI-50 in the assay with A498 was 0.00045 µg/mL; in the assay on KM20L2, 0.00028 µg/mL; in the assay on NCI-H460, 0.003 µg/mL; in the assay on OVCAR-3 it was 0.000031 µg/mL; in the assay with SF-295 it was 0.0029 µg/mL; in the assay with SK-MEL-5, 0.000018 µg/mL. The LC-50 in the assay on A498, with KM20L2, in the assay on NCI-H460, in the assay with OVCAR-3, in the assay with SF-295 and with SK-MEL-5 was greater than 0.01 µg/mL each time. For the same substance, the TGI was greater than 0.01 µg/mL in the assay with A498; greater than 0.01 µg/mL with KM20L2; 0.009 µg/mL with NCI-H460; 0.0016 µg/mL with OVCAR-3; greater than 0.01 µg/mL in the assay on SF-295; greater than 0.01 µg/mL with SK-MEL-5. For the same substance, the ED-50 in the assay on PS-388 is 0.000434 µg/mL.
Consider “L-Dolavalyl-L-Leucyl-N-methyl-(3R,4S,5S)-Dolaisoleuinyl-(2R,3R,4S)-Dolaproinyl-L-Methionine N-2-benzothiazolamide [8e]”, for which the GI-50 was found to be 0.00087 µg/mL in the assay with A498; 0.00034 µg/mL in the assay with KM20L2; 0.0032 µg/mL in the assay on NCI-H460; 0.00008 µg/mL with OVCAR-3; 0.0036 µg/mL in the assay with SF-295; 0.000051 µg/mL in the assay with SK-MEL-5. Further, the LC-50 with A498, in the assay with KM20L2, with NCI-H460, with OVCAR-3, in the assay with SF-295 and in the assay with SK-MEL-5 was greater than 0.01 µg/mL in each case. The concentration for total growth inhibition (TGI) in the assay with A498 is greater than 0.01 µg/mL; in the assay with KM20L2, greater than 0.01 µg/mL; in the assay on NCI-H460, greater than 0.01 µg/mL; in the assay with OVCAR-3, 0.0029 µg/mL; in the assay on SF-295, greater than 0.01 µg/mL; with SK-MEL-5, greater than 0.01 µg/mL. Also, the ED-50 in the assay on PS-388 is 0.000839 µg/mL.
